{"source": "patent US11708344B2", "about": "“Flavone derivatives for the treatment and prophylaxis of hepatitis B virus disease” (Hoffmann-La Roche Inc., priority 2018, dated 2023)", "tested_on": "HBeAg (surrogate marker for cccDNA) in HepDES19 cells", "experiment": "Engineered HepDES19 primary screen assay (HBeAg ELISA)", "assay_type": "cell-based, HBV", "details": "Hepatitis B virus, HepDES19, 120 h, read-out: IC50 (HBeAg level, HepDES19 primary screen assay), HepDES19 cells, 5 days compound incubation, HBeAg ELISA", "in_short": "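IC50 values come from 4-parameter logistic fits of HBeAg ELISA signal, the cccDNA surrogate, with CCK-8 run in parallel for viability. Compounds at half-log dilutions with 1% DMSO were applied for 5 days at 37 °C to HepDES19 cells previously cultured 8 days without Tet.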"}
{"smiles": "O=c1cc(-c2ccc(Br)cc2OCCO[C@H]2C[C@@H](C(=O)O)C2)oc2c(Cl)cccc12", "note": "[Example C003-A, Cis-3-[2-[5-bromo-2-(8-chloro-4-oxo-chromen-2-yl)phenoxy]ethoxy]cyclobutanecarboxylic acid]", "values": [{"measurement": "IC50", "value": 1070, "unit": "nM"}]}
